Measurements reported in patent US20260028330A1, “HETEROARYL CARBOXAMIDE AND RELATED GPR84 ANTAGONISTS AND USES THEREOF” (LIMINAL BIOSCIENCES LIMITED, priority 2022, published 2026).
pIC50: −log10 of the molar value.

Tests used:
[1] = system: dextran sodium sulfate-induced chronic inflammatory bowel disease model; settings: once-daily doses of 3 and 10 mg/kg; mouse; cited from earlier work
human GPR84 receptor = molecular target: T1, human GPR84 receptor (Homo sapiens, UniProt Q9NQS5); assay: Gαi biosensor BRET assay in transfected HEK293 cells (antagonism of GPR84 agonist ZQ-16); format: cell-based; settings: 200 nmol/L ZQ-16; for inhibition at 2 µM / inhibition at 10 µM: HEK293, single concentration; for inhibition at 2 µM: code A = 2 μM; for inhibition at 10 µM: code F = 10 μM
T1 construct: host or cells: HEK293 cells, transient transfection
Description: Background—The following assays can be used for determination of GPR84 activation in living HEK293 cells. The Gαi BRET biosensor (Gagnon et al., 2018; Gales et al., 2006. Nat Struct Mol Biol. 13, 778-86; Saulieres et al., 2012. Nat Chem Biol. 8, 622-30) allows to directly monitor GPR84-mediated activation of Gαi. The Gαi biosensor consists of a Rluc8-tagged Gαi2 subunit, a GFP10-tagged Gγ2 subunit, and an untagged Gβ1. Agonist stimulation and GPR84 activation triggers a physical separation between the RLuc8-Gαi donor and the GFP10-Gγ2 acceptor, resulting in a decrease in BRET signal whose amplitude is correlated to ligand efficacy (Gales et al., 2006). Moreover, signaling functions of GPCRs are tightly regulated by endocytosis, the targeting of receptors to endosomes and their sorting to lysosomes or recycling to the plasma membrane. The early endosomes (EEs) trafficking assay (Namkung et al., 2016. Nat Commun. 7, 12178) uses Rluc8-tagged GPR84 and Renilla GFP (rGFP) attached to the FYVE domain from human endofin/zinc finger FYVE domain-containing protein 16, which binds phosphatidylinositol 3-phosphate in EEs. Agonist stimulation of GPR84-Rluc8 leads to trafficking of the receptor to EEs, and ensuing increase of the donor concentration relative to the rGFP-FYVE acceptor anchored in the same cellular compartment, and thus results in an increase in BRET signal.
Plasmids—The cDNA clones for human GPR84 receptor, human Gαi2, Gβ1, and Gγ2 were obtained from the cDNA Resource Center (www.cdna.org). GFP10 (F64L, S147P, S202F and H231L variant of Aequorea victoria Green Fluorescent Protein) gBlocks gene fragments (Integrated DNA Technologies, IA) and linker were inserted in frame at the N-terminus of human Gγ2. Rluc8 (A55T, C124A, S130A, K136R, A143M, M185V, M253L, and S287L variant of the Renilla reniformis luciferase) gBlocks gene fragment was inserted with linkers in frame in between residues 91 and 92 of Gα2 or at the C-terminus of GPR84. The FYVE domain from human endofin (residues Q739 to K806) attached in frame at the C terminus of a humanized Renilla GFP (rGFP), were synthesized as gBlocks gene fragments.
Bioluminescence Resonance Energy Transfer (BRET) Measurement—HEK293 cells were transfected with GPR84-Rluc8 and rGFP-FYVE for the EEs trafficking biosensor or with GPR84, Gαi2-Rluc8, GFP10-Gγ2, and Gβ1 for the Gαi biosensor. The following day, transiently transfected cells were seeded in 96-well white clear bottom microplates coated with poly-D-lysine and left in culture for 24 hours. Cells were washed once with Tyrode's buffer (140 mmol/L NaCl, 1 mmol/L CaCl2, 2.7 mmol/L KCl, 0.49 mmol/L MgCl2, 0.37 mmol/L NaH2PO4, 5.6 mmol/L glucose, 12 mmol/L NaHCO3, and 25 mmol/L HEPES, pH 7.5) before performing assays in Tyrode's buffer. Test compounds were incubated with cells for 5 (Gui) or 15 (EEs) minutes at 37° C. before addition of 200 nmol/L of the GPR84 agonist ZQ-16 (2-(Hexylthio)-6-hydroxy-4(3H)-pyrimidinone) for 5 minutes at room temperature (Gui) or 30 minutes at 37° C. (EEs). The Rluc8 substrate coelenterazine 400A (Prolume, Lakeside, AZ) was added at a final concentration of 5 μmol/L and BRET readings were collected using an Infinite M1000 microplate reader (Tecan, Morrisville, NC). BRET^2 readings between Rluc8 and GFP10 or rGFP were collected by sequential integration of the signals detected in the 370 to 450 nm (Rluc8) and 510 to 540 nm (GFP10, rGFP) windows. The BRET signal was calculated as the ratio of light emitted by acceptor (GFP10, rGFP) over the light emitted by donor (Rluc8). The values were corrected to net BRET by subtracting the background BRET signal obtained in cells transfected with Rluc8 constructs alone. Ligand-promoted net BRET values were calculated by subtracting vehicle-induced net BRET from ligand-induced net BRET.

T1 sequence (Q9NQS5 whole entry): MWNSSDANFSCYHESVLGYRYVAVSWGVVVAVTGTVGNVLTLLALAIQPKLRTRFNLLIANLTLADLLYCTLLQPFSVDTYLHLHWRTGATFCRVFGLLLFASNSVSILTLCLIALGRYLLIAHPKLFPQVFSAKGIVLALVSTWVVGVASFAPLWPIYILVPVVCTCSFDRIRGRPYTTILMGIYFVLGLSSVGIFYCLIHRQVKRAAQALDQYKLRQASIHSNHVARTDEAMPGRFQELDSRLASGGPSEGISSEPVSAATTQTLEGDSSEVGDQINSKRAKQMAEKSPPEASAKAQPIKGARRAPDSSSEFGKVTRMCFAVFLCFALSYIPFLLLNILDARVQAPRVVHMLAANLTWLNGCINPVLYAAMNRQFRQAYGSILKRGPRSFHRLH

pIC50 (human GPR84 receptor)	inhibition at 10 µM (human GPR84 receptor) [%]	SMILES	further results
		O=c1nc(OC[C@@H]2COCCO2)cc2n1CCc1cc(C#CC3CC3)ccc1-2 [GLPG1205]	disease activity index score [1]: reduced; neutrophil infiltration [1]: reduced
≥ 6.52		Cc1cc(F)c(C#CC2CC2)cc1N(C)C(=O)c1cn(CC2OCC3(CC3)CO2)nn1 [Compound I-100]	inhibition at 2 µM (human GPR84 receptor): > 75%
≥ 6.52		Cc1ccc(C#CC2CC2)cc1N(C)C(=O)c1cn(CC2OCC3(CC3)CO2)nn1 [Compound I-17]	inhibition at 2 µM (human GPR84 receptor): > 75%
	25 to 50	Cc1ccc(C#CC2CC2)cc1N(C)Cc1cn(CC2OCC3(CC3)CO2)nn1 [Compound I-12, N-((1-((5,7-dioxaspiro[2.5]octan-6-yl)methyl)-1H-1,2,3-triazol-4-yl)methyl)-5-(cyclopropylethynyl)-N,2-dimethylaniline]	
	≤ 25	Cc1cc(C#CC2CC2)ccc1C(=O)Nc1cn(CC2OCC3(CC3)CO2)nn1 [Compound I-20]	
	25 to 50	Cc1ccc(C#CC2CC2)nc1N(C)C(=O)c1cn(CC2OCC3(CC3)CO2)nn1 [Compound I-36]	
	> 75	Cc1ccc(C#CC2CC2)cc1N(C)S(=O)(=O)c1cn(CC2OCC3(CC3)CO2)nn1 [Compound I-55]	
6.00 to 6.52	> 75	CN(C(=O)c1cn(CC2OCC3(CC3)CO2)nn1)c1cc(C#CC2CC2)ccc1Br [Compound I-44]	
≥ 6.52		CN(C(=O)c1cn(CC2OCC3(CC3)CO2)nn1)c1ccc(C#CC2CC2)cc1Br [Compound I-38]	inhibition at 2 µM (human GPR84 receptor): > 75%
	> 75	Cc1cc(C#CC2CC2)ccc1CN(C)c1cn(CC2OCC3(CC3)CO2)nn1 [Compound I-22]	
	≤ 25	Cc1ccc(C#CC2CC2)cc1N(C)C(=O)c1ccc(=O)n(CC(=O)N(C)C)c1C [Compound I-3, N-(5-(cyclopropylethynyl)-2-methylphenyl)-1-(2-(dimethylamino)-2-oxoethyl)-N,2-dimethyl-6-oxo-1,6-dihydropyridine-3-carboxamide]	
	25 to 50	Cc1ccc(C#CC2CC2)cc1N(C)C(=O)c1c(C)cc(OCC(=O)N(C)C)cc1C [Compound I-35]	
	25 to 50	Cc1cc(C#CC2CC2)ccc1/N=C(\OC(C)C)c1cn(CC2OCC3(CC3)CO2)nn1 [Compound I-85]	
6.00 to 6.52	> 75	CN(C(=O)c1cn(CC2OCC3(CC3)CO2)nn1)c1cc(C#CC2CC2)ccc1C1CC1 [Compound I-47]	

SMILES	pIC50 (human GPR84 receptor)	inhibition at 10 µM (human GPR84 receptor) [%]	further results
Cc1cc(C#CC2CC2)ccc1N(C(=O)c1cn(CC2OCC3(CC3)CO2)nn1)C1CC1 [Compound I-83]	≥ 6.52		inhibition at 2 µM (human GPR84 receptor): > 75%
COc1cc(C#CC2CC2)cc(NC(=O)c2cn(CC3OCC4(CC4)CO3)nn2)c1 [Compound I-98]		≤ 25	
Cc1cc(F)c(C#CC2CC2)cc1NC(=O)c1cn(CC2OCC3(CC3)CO2)nn1 [Compound I-101]		≤ 25	
CN(C)c1ccc(C#CC2CC2)cc1NC(=O)c1cn(CC2OCC3(CC3)CO2)nn1 [Compound I-102]		≤ 25	
